For data set [1], the target named is T1, folate receptor (FR-α) on KB cells (Homo sapiens, UniProt P15328).
T1 construct: KB cells that overexpress FR-α were seeded in 24-well (100,000 cells/well) Falcon plates; host or cells: KB cells (human; described as a HeLa derivative)
Put plainly: Competition binding with [3H]-folic acid on KB cells. On the procedure:
KB cells that overexpress FR-α were seeded in 24-well (100,000 cells/well) Falcon plates and allowed to form monolayers over a period of 24 h. […] After incubating for 1 hour at 37° C., cells were rinsed with PBS (2×0.5 mL) and 1M trichloroacetic acid (1×0.5 mL) to remove any unbound radioactive materials. After adding 1% sodium dodecylsulfate in PBS (0.5 mL), cells were transferred into individual scintillation vials containing Ecolume scintillation cocktail (3.0 mL) and counted in a liquid scintillation analyzer. The relative binding affinities were calculated using a plot of cell bound radioactivity versus the concentration of the test article using Graph Pad Prism 4.
(§1) KB cells that overexpress FR-α were seeded in 24-well (100,000 cells/well) Falcon plates (BD Biosciences, CA) and allowed to form monolayers over a period of 12 h. […] After incubating for 1 h at 37° C., cells were rinsed with PBS (3×0.5 mL, Gibco, NY) to remove any unbound radioactive materials. After adding 0.25 M sodium hydroxide (0.5 mL) and incubating for 12 h at 4° C., cells were transferred into individual scintillation vials containing Ecolite scintillation cocktail (3.0 mL, MP Biomedicals, OH) and counted in a liquid scintillation analyzer (Packard). The relative binding affinities were calculated using a plot of % cell bound radioactivity versus the log concentration of the test article using GraphPad Prism 4.
as §1, with “12 hours.” for “12 h.”, “1 hour” for “1 h”, “12 hours” for “12 h”

Data set [2] can be described thus: Toxicity in healthy nude mice. The format is in vivo. On the procedure:
Seven-week-old healthy female nude mice (5 mice/group) were administered with 1 μmol of freshly prepared OTL-0038 or OTL-0039 dissolved in 100 μL of phosphate buffered saline via tail vein injection on day zero. Body weights and clinical observations were monitored prior to dosing and daily thereafter from day zero to 7. Any animals with a body weight loss of 20% or more over two consecutive days would be euthanized, but this was not necessary. The animals were euthanized by CO2 asphyxiation on day 7 and selected tissues (brain, heart, lung, liver, spleen, kidney, stomach, small intestine, large intestine, muscle, skin) were collected into vials containing 4% formalin. Formalin fixed tissues were sectioned into 10 μm thick sections and mounted onto Superfrost Plus™ slides (Fisher Scientific, Pittsburgh Pa.). After staining the slides with H&E, immunohistochemistry (IHC) analysis of the tissues was conducted to determine to the toxicity of OTL-0038 and OTL-0039.

Data set [3] concerns malignant lesions in human ovarian cancer patients. The note with it: intra-operative; cited from earlier work.
For data set [4] the following is noted: instability of the thiourea bridge; cited from earlier work.

T1 sequence (P15328 25-234): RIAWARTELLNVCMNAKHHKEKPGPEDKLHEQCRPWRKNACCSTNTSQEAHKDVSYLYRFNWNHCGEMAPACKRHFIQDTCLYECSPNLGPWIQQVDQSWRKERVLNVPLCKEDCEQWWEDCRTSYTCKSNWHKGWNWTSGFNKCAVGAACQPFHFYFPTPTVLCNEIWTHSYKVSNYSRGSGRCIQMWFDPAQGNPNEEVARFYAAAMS

`CC1(C)C(=CC=C2CCCC(C=CC3=[N+](CCCCS(=O)(=O)[O-])c4ccc(S(=O)(=O)O)cc4C3(C)C)=C2Oc2ccc(C[C@@H](NC(=O)c3ccc(NCc4cnc5nc(N)[nH]c(=O)c5n4)cc3)C(=O)O)cc2)N(CCCCS(=O)(=O)O)c2ccc(S(=O)(=O)O)cc21` [OTL-0039, PTE-D-Tyr-S0456]: the “affinity and specificity for folate receptor (words)” value in data set [1] (KB cells) is “lower affinity for folate receptor when compared to folic acid and OTL-0038”. In data set [1] (relative affinity of folic acid=1, <1 weaker), this molecule displayed a Relative binding affinities of 0.09. Also, the “toxicity (conclusion)” value in data set [2] (1 μmol (1000× clinical dose)) is on record as “not toxic to animals”. Further, the “skin colour immediately after the injection” value in data set [2] (1 μmol tail vein) is reported as “became green”. For the same molecule, in data set [2] (1 μmol tail vein, day 0 to 7), the activity and behaviour result is listed as “behaved normally throughout the study”; the “body weights over the course of the study” value is “remained stable”. The “lesions in tissues (IHC data)” value in data set [2] (1 μmol tail vein, day 7) is “no lesions identified in any tissues”.

As to `Nc1nc2ncc(CNc3ccc(C(=O)NC(CCC(=O)NCCNC(=S)Nc4ccc(-c5c6ccc(=O)cc-6oc6cc(O)ccc56)c(C(=O)O)c4)C(=O)O)cc3)nc2c(=O)[nH]1` (stereo not shown) [EC17, folate-ethelenediamine-fluorescein isothiocynate], in data set [3], the “more malignant lesions removed with the dye than without it” value was ~5 × and the “pathology of resected fluorescent lesions” value was “confirmed by pathology to be malignant”. Moreover, in data set [4], the “shelf-life stability” value is recorded as “easily decomposes”.
